Experimental data reported in PMC11272821, “Mechanistic safety assessment via multi-omic characterisation of systemic pathway perturbations following in vivo MAT2A inhibition” (Archives of Toxicology, 2024).

Assays:
[1] = tested on: rat liver transcriptome; assay: Liver transcriptomics; format: in vivo
Protocol: Total RNA was purified from liver samples with RNAdvance Tissue™ kit by Beckman Coulter Life Sciences according to manufacturer’s instructions. The method was carried out in an automated robotic solution with Biomek i7 Hybrid™. The concentration and quality of isolated RNA molecules were measured applying parallel capillary electrophoresis using Agilent Fragment Analyzer 5300 (DNF-471-33-SS Total RNA 15nt). The data were analysed in ProSize data analysis software to derive the concentration and RNA quality numbers (RQN) for individual samples.
The double-stranded cDNA obtained with Poly (A)-mRNA enrichment (500 ng total RNA input) was subjected to library preparation using KAPA Hyper Prep Kit (Kapa Biosystems, MA, USA) according to manufacturer’s protocol. The libraries were pooled in a single library and were sequenced on an Illumina NovaSeq6000 with a v1.5 SP 100 cycle kit as paired-end reads to PE51bp. The sequencing runs were carried out according to the manufacturer’s instructions.

[2] = LogD (pH 7.4); format: physicochemical
[3] = molecular target: T1, M2 muscarinic receptor (Homo sapiens, UniProt P08172); assay: Cell based functional assay
T1 construct: Eurofins
T1 sequence (P08172 1-466): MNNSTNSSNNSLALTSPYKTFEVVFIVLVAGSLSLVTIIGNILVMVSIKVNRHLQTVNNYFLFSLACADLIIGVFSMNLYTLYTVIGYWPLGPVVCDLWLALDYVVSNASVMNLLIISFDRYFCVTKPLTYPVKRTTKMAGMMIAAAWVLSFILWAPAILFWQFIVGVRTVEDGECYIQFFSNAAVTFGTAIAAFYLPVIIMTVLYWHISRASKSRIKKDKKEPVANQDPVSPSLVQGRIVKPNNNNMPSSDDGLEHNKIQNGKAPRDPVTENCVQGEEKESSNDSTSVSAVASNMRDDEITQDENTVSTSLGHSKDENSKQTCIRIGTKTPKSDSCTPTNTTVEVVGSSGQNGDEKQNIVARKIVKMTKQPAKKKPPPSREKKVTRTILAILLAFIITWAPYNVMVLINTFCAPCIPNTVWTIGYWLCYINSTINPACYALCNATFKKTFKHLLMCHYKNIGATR
Protocol: (§1) Secondary pharmacology assays were performed at Eurofins using standard experimental techniques against a total of 86 targets across a broad pharmacological space. Assay details along with experimental protocols are described at https://www.eurofinsdiscoveryservices.com. […] Assays measuring substrate turnover or phosphorylation by isolated proteins were used for kinase and enzyme targets, allowing direct determination of the mode of action of the compounds. […] Assays were run in eight points concentration response mode with half log dilutions and IC50, EC50 or Ki (Cheng and Prusoff [1973]) values determined.

[4] = molecular target: T2, 5-HT7 receptor (Homo sapiens, UniProt P34969); assay: Cell based functional assay
T2 construct: Eurofins
T2 sequence (P34969 whole entry): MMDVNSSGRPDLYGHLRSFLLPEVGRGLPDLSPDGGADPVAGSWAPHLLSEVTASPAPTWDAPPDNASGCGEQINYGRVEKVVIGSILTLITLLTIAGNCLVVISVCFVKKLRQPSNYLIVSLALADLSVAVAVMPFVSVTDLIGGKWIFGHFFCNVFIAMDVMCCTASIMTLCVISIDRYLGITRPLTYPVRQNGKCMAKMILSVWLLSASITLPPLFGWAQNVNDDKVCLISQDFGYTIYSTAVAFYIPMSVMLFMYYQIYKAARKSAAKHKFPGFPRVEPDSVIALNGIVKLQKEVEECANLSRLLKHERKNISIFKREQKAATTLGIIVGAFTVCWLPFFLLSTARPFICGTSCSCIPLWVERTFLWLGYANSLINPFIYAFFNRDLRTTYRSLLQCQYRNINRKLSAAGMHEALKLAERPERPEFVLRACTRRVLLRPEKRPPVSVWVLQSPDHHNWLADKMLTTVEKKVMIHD
Protocol: as §1

[5] = tested on: SAM; assay: Targeted LC–MS of SAM in plasma, liver, brain and heart; format: in vivo, rat
Protocol: SAM and methionine levels were quantified in plasma samples and tissues using Ultra Performance Liquid Chromatography (UPLC) coupled with quantitative MS in ESI positive ion mode as described in Supplementary M&M.
For LCMS analysis, standard curves were spiked to give a calibrated range of 1.0 – 1000 nM for SAM and 1.0 – 2000 for methionine. 5 µL of standard spike solution was added to 45 µL of ACN/MeOH/H2O (40/40/20 v/v/v) and 2.5 µL of deuterated citrulline is added as an internal standard. A further calibration curve was prepared with 5 µL blank mouse plasma, 5 µL of standard and 40 µL of 40:40:20 Acetonitrile:Methanol:0.5% formic acid (Aq) with 2.5 µL of deuterated citrulline was used to investigate matrix suppression effects. Blank plasma was also diluted 1:10 with ACN/MeOH/H2O (40/40/20 v/v/v) and was also analysed to establish systemic biomarker levels.
Metabolomic sample preparation and analysis. Tissue samples (liver, brain, heart) were extracted with 1 mL of ACN/MeOH/H2O 40/40/20 v/v/v per 100 mg material in a PrecellysCK28K-2 mL tube. Tissues were homogenised/extracted in 3x20 sec shake at 5500 rpm and centrifuged for 5 min at 10,621g. After centrifugation a maximum of 800 µL clear supernatant was transferred to cryovials and the same amount of extraction solvent used in the first step was added to tissue precipitate. Extraction procedure was repeated as above and clear supernatants combined in the same cryovial and vial labelled as polar metabolite extract. On the remaining tissue pellet 1ml (per100mg tissue material) of Butanol/MeOH 3/1v/v was added and the above extraction sequence applied. Resulted clear supernatant transferred to a clean cryovial and labelled as lipid extract. All samples kept at the lowest available temperature (0 °C) throughout the extraction process and stored at -80 °C until further analysis.

[6] = Liver mass spectrometry imaging; format: in vivo, rat
Protocol: Liver MSI. Tissue samples were snap frozen in dry ice cooled isopentane. Frozen samples were embedded in a HPMA/PVP hydrogel as previously detailed (Dannhorn et al. 2020). Tissue sectioning was performed using a CM1950 cryostat microtome (Leica Biosystems, Nussloch, Germany) at a section thickness of 10 µm. The tissue sections for desorption electrospray ionisation MSI (DESI-MSI), and matrix assisted laser desorption ionisation (MALDI-MSI) were immediately thaw mounted onto Superfrost or indium tin oxide coated microscope slides respectively. Tissue sections for positive ion mode DESI-MSI were washed with xylene for 1 minute to reduce ion suppression of metabolites of interest.
MSI analysis of most metabolites was performed by DESI-MSI and analysis of glutathione and glutathione disulphide was performed with MALDI-MSI. DESI-MSI analysis was carried out using a Q-Exactive mass spectrometer (Thermo Scientific, Bremen, Germany) equipped with an automated 2D-DESI ion source (Prosolia Inc., Indianapolis, IN, USA). Experiments were carried out in both positive and negative mode with a mass range up to a m/z of 1000, with a nominal mass resolution of 70,000. The injection time was fixed to 150 ms resulting in a scan rate of 3.8 pixel/s. […]

[7] = Antagonist, read-out: Functional IC50 or EC50

Cn1cc2cc(-c3cc4[nH]nc(C5CC5)c4n(-c4ccc(OC(F)F)cc4)c3=O)ccc2n1 [AZ’9567]
differentially expressed liver genes ([1]; high dose (30 mg/kg BID)): 1638
differentially expressed liver genes ([1]; low dose (3 mg/kg BID)): 2080
LogD (pH 7.4) [2]: 3.4
Pharmacological mode of action [3]: Antagonist
IC50 [3, 7]: 17.1 µM
Pharmacological mode of action [4]: Antagonist
IC50 [4, 7]: 2.9 µM
plasma SAM decrease, lower than the vehicle controls ([5]; 30 mg/kg BID): 70%
brain SAM change ([5]; 3 and 10 mg/kg BID): no significant change
heart SAM decrease ([5]; all dose levels): ~90%
liver SAM decrease ([5]; all doses): ~ 45%
distribution of the compound in liver sections [6]: mostly homogenously across the liver with hotspots of increased abundance in the blood vessels
